Reference: patent US5047242A, “Azadirachtin derivative insecticides” (Native Plant Institute ("NPI"), priority 1987, dated 1991)
In brackets after ≈: the same amount, converted by molar mass. Entries after “also recorded” stand apart in the source; their conditions may differ. Read-outs that look alike come from different tables or passages of the source.

Tests used:
Heliothis virescens [1] = test: Oral injection of fifth-instar larvae, pupal and adult development (non-irradiated compounds); format: in vivo; settings: for Number Adults / Number Adults Deformed / Number Pupae / Unsuccessful Larvae-Pupae (number) / Unsuccessful Pupae-Adult (number) / Adults (%) / Adults Deformed (%) / Pupae (%) / Unsuccessful Larvae-Pupae (%) / Unsuccessful Pupae-Adult (%): 1.0 microgram injected orally; for Number Adults / Number Adults Deformed / Number Pupae / Unsuccessful Larvae-Pupae (number) / Unsuccessful Pupae-Adult (number): fifth-instar; for Number Adults / Number Adults Deformed / Number Pupae / Unsuccessful Larvae-Pupae (number) / Unsuccessful Pupae-Adult (number) / inhibition of pupation (in words): non-irradiated; for Adults (%) / Adults Deformed (%) / Pupae (%) / Unsuccessful Larvae-Pupae (%) / Unsuccessful Pupae-Adult (%): % of larvae; for inhibition of pupation (in words): 1.0 μg per os
Experimental: (§1) Individual larvae were injected per os on the first day of the fifth instar with 1.0 μg of either irradiated or non-irradiated compounds dissolved in 1.0 μl of 75% aqueous ethanol.
Table 2: Successful and unsuccessful pupal and adult development of
fifthinstar Heliothis Virescens larvae injected orally with 1.0 microgram
of either azadirachtin, 3deacetylazadirachtin, 22,23dihydroazadirachtin,
or 2',3',22,23tetrahydroazadirachtin.

Heliothis virescens [2] = test: Relative activity of UV-irradiated compounds in inhibiting pupal development of fifth-instar larvae; format: in vivo; settings: for Relative activity, inhibition of pupal development: relative to non-irradiated counterpart; for activity retained after 90 h of exposure to UV radiation (in words): 90 h UV
Experimental: (§2) Azadirachtin, 3-deacetylazadirachtin, 22,23-dihydroazadirachtin, and 2',3',22,23-tetrahydroazadirachtin (1.0 mg/ml absolute ethanol) were placed individually in capped quartz NMR tubes (5×180 mm) and were irradiated with two UV germicidal lights (GE, G30T8, 200-280 nm, 30W) 1.8 m from the source at room temperature for up to 400 h. The controls were identical samples protected from exposure to UV radiation by wrapping with aluminum foil. At selected time intervals, aliquots from both the controls (non-irradiated) and irradiated samples were removed for high-performance liquid chromatography (HPLC) analysis and bioassay (vide infra).
as §1
Table 3: Relative activity of azadirachtin, 3deacetylaza-dirachtin,
22,23dihydroazadirachtin, and 2',3',22,23tetrahydroazadirachtin, all of
which had been exposed for 15, 30, 90, 200, and 400 hours to UV radiation
inhibiting the pupal development of fifthinstar Heliothis virescens
(§3) larvae. Relative activity is defined as the percentage of larvae injected

Heliothis virescens [3] = test: Artificial diet feeding bioassay, mortality and growth inhibition in first-instar larvae; format: in vivo, Heliothis virescens (tobacco budworm); settings: for EC50 (concentration causing 50% growth inhibition): Table 1, first-instar Heliothis virescens larvae, artificial diet, parentheses = 95% confidence limits
From the text: The results of the growth inhibitory and lethal activities of azadirachtin and these 8 derivatives when fed in an artificial diet to Heliothis virescens larvae are shown in Table 1. Similar to the results of Morgan, E. D., in "Natural pesticides from the Neem tree (Azadirachta indica A. Juss), Schmutterer, H., et al., Eds., Proc. First International Neem Conference (Rottach-Egern, 1980), German Agency for Technical Corporation,Eschborn, Germany, 1982, pps. 43-52 (hereinafter "Morgan"), neither deacetylation nor hydrogenation of the carbon-carbon double bond of the dihydrofuran ring moiety of azadirachtin had any significant effect on activity of the compound against H. virescens.
Mortality and growth inhibition in first-instar Heliothis
virescens larvae fed azadirachtin and eight derivatives in an
artificial diet (I. Kubo and J. A. Klocke, In: Plant Resistance to
Insects (P. A. Helin, Ed.), ACS Symposium Series 208, American Chemical
Society, Washington, D.C. (1983), pp. 329-346.).^a
^b LC50 values are the concentrations (ppm) causing 50%
^c EC50 values are the concentrations (ppm) causing 50% growth
^d Numbers in parentheses are the 95% confidence limits determined
using the methods of Litchfield and Wilcoxon, J. Pharmacol. Exp. Ther.
An artificial diet feeding bioassay with neonate larvae of tobacco budworm (Heliothis virescens) and fall armyworm (Spodoptera frugiperda) was used as previously described (Kubo and Klocke, 1983) to detect insecticidal activities in the plant extracts to monitor fractionation, and to determine the potency of the isolated constituents and derivatives. Potency was determined either as the effective concentration (EC50) of added material that is necessary to reduce larval growth to 50% of the control values or as the lethal concentration (LC50) of added material that is necessary to kill 50% of the treated larvae. EC50 and LC50 values were determined from log probit paper and analyzed statistically by the method of Litchfield and Wilcoxon, supra.

insects [4] = settings: literature; cited from earlier work
Heliothis virescens [5] = test: Relative activity of UV-irradiated compounds in inhibiting adult development of fifth-instar larvae; format: in vivo; settings: for Relative activity, inhibition of adult development: relative to non-irradiated counterpart; for ability to inhibit larvae from reaching the adult stage after UV (in words): 200 h UV
Experimental: as §2, §1
Table 4: Relative activity of azadirachtin, 3deacetylaza-dirachtin,
22,23dihydroazadirachtin, 2',3',22,23tetrahydroaza-dirachtin, all of whic
had been exposed for 15, 30, 90, 200, and 400 hours to UV radiation, in
inhibiting the adult development of fifthinstar Heliothis virescens
as §3
relative to the percentage injected with its nonirradiated counterpart

[6] = UV stability in ethanol by reversed phase HPLC; format: physicochemical; settings: for UV lability (in words): UV irradiation, HPLC
Experimental: Stability of Azadirachtin derivatives was determined as follows:
as §2
Analytical reversed phase HPLC was performed on a phenyl (5μm) column run isocratically with acetonitrile-water (3:7) (Yamasaki et al.) Peaks were detected at 214 nm. The irradiated samples were compared with their corresponding non-UV-irradiated controls by measuring the height of the peak eluting at the appropriate Rt for each irradiated compound relative to each one's non-irradiated control. Results are expressed as the percent of the initial sample concentration remaining relative to the control. Each time point was done in at least triplicate fashion.

insects [7] = test: Antifeedant / systemic action; settings: in vivo
insect = settings: Kubo & Klocke; cited from earlier work

SMILES | Number Adults (Heliothis virescens [1]) | Number Adults Deformed (Heliothis virescens [1]) | Number Pupae (Heliothis virescens [1]) | Unsuccessful Larvae-Pupae (number) (Heliothis virescens [1]) | Unsuccessful Pupae-Adult (number) (Heliothis virescens [1]) | Adults (%) (Heliothis virescens [1]) | Adults Deformed (%) (Heliothis virescens [1]) | Pupae (%) (Heliothis virescens [1]) | Unsuccessful Larvae-Pupae (%) (Heliothis virescens [1]) | Unsuccessful Pupae-Adult (%) (Heliothis virescens [1]) | inhibition of pupation (in words) (Heliothis virescens [1]) | Relative activity, inhibition of pupal development (Heliothis virescens [2]; 15 h UV exposure) | Relative activity, inhibition of pupal development (Heliothis virescens [2]; 30 h UV exposure) | activity retained after 90 h of exposure to UV radiation (in words) (Heliothis virescens [2]) | Relative activity, inhibition of pupal development (Heliothis virescens [2]; 90 h UV exposure) | ability to inhibit pupation after UV (in words) (Heliothis virescens [2]; 200 h UV) | Relative activity, inhibition of pupal development (Heliothis virescens [2]; 200 h UV exposure) | ability to inhibit pupation after UV (in words) (Heliothis virescens [2]; 400 h UV) | activity retained after 400 h of exposure to UV radiation (Heliothis virescens [2]; 400 h UV) | Relative activity, inhibition of pupal development (Heliothis virescens [2]; 400 h UV exposure) | also measured
C/C=C(\C)C(=O)O[C@H]1C[C@@H](OC(C)=O)[C@@]2(C(=O)OC)CO[C@H]3[C@@H](O)[C@@](C)([C@]45O[C@@]4(C)[C@H]4C[C@@H]5O[C@@H]5OC=C[C@@]54O)[C@H]4[C@]1(CO[C@]4(O)C(=O)OC)[C@@H]32 [azadirachtin] | 2 Number | 1 Number | 10 Number | 5 Number | 0 Number | 1.3% | 0.7% | 6.7% | 3.4% | 0% | equally effective | 98.6% | 98.9% | retained full activity | 85.7% | did decline | 74.2% | even greater decline | approximately 50% | 60.0% | mortality at 0.001 mg (Heliothis virescens [1]; Heliothis virescens, light or radiation study, po, read-out: % Mortality Prior to Adult Stage): 98.7%; ability to inhibit pupation after UV (in words) (Heliothis virescens [2]; up to 90 h UV): not appreciably reduced; LC50 (Heliothis virescens [3]; Heliothis virescens, po, read-out: LC50 (concentration causing 50% mortality)): 0.8 µg/mL (≈ 1.11 µM); EC50 (concentration causing 50% growth inhibition) (Heliothis virescens [3]): 0.07 (0.05-0.10) ppm; ecdysis inhibitory activity (in words) (insects [4]): potent ecdysis inhibitory activity; also recorded: same ecdysis inhibitory activity; Relative activity, inhibition of adult development (Heliothis virescens [5]; 15 h UV exposure): 101.3%; Relative activity, inhibition of adult development (Heliothis virescens [5]; 30 h UV exposure): 101.3%; Relative activity, inhibition of adult development (Heliothis virescens [5]; 90 h UV exposure): 97.3%; ability to inhibit larvae from reaching the adult stage after UV (in words) (Heliothis virescens [5]): declined sligtly; Relative activity, inhibition of adult development (Heliothis virescens [5]; 200 h UV exposure): 89.7%; Relative activity, inhibition of adult development (Heliothis virescens [5]; 400 h UV exposure): 81.1%; degraded after 90 h of exposure to UV radiation ([6]; 90 h UV): more than 80%; degradation following 400 h of exposure to UV radiation (in words) ([6]; 400 h UV): none of the three compounds remained in their original state; T1/2 of UV degradation ([6]; UV 200-280 nm, 1.0 mg/ml ethanol, room temperature): 25 h; UV lability (in words) [6]: UV-labile; kinetics of UV degradation (in words) ([6]; under the conditions used, data not shown): first-order reaction; antifeedant function (in words) (insects [7]): function as antifeedants
C/C=C(\C)C(=O)O[C@@H]1C[C@H](O)[C@]23CO[C@H](C(=O)OC)[C@H]2[C@](C)([C@]24O[C@@]2(C)[C@H]2C[C@@H]4O[C@@H]4OC=C[C@@]42O)[C@H](O)[C@@H]2OC[C@@]1(C(=O)OC)[C@H]23 [deacetylazadirachtinol] |  |  |  |  |  |  |  |  |  |  |  |  |  |  |  |  |  |  |  |  | insect growth inhibitor activity, fold less active than azadirachtin (insect): about 2.5 fold; ecdysis inhibitory activity (in words) (insects [4]): same ecdysis inhibitory activity
C/C=C(\C)C(=O)OC1CC(OC(C)=O)C2(C(=O)OC)COC3C2C12COC(O)(C(=O)OC)C2C(C)(C12OC1(C)C1CC2OC2OCCC21O)C3O (stereo not shown) [22,23-dihydroazadirachtin] | 6 Number | 5 Number | 47 Number | 13 Number | 4 Number | 3.4% | 2.8% | 26.7% | 7.4% | 2.3% | less effective | 113.1% | 104.6% | retained full activity | 100.0% | did decline | 72.7% | even greater decline | approximately 50% | 49.1% | ability to inhibit pupation after UV (in words) (Heliothis virescens [2]; up to 90 h UV): not appreciably reduced; EC50 (concentration causing 50% growth inhibition) (Heliothis virescens [3]): 0.08 (0.04-0.15) ppm; Relative activity, inhibition of adult development (Heliothis virescens [5]; 15 h UV exposure): 103.5%; Relative activity, inhibition of adult development (Heliothis virescens [5]; 30 h UV exposure): 100.1%; Relative activity, inhibition of adult development (Heliothis virescens [5]; 90 h UV exposure): 103.5%; ability to inhibit larvae from reaching the adult stage after UV (in words) (Heliothis virescens [5]): more so; Relative activity, inhibition of adult development (Heliothis virescens [5]; 200 h UV exposure): 69.0%; Relative activity, inhibition of adult development (Heliothis virescens [5]; 400 h UV exposure): 74.5%; degradation following 400 h of exposure to UV radiation (in words) [6]: none of the three compounds remained in their original state; kinetics of UV degradation (in words) [6]: first-order reaction; UV lability (in words) [6]: UV-labile
